The subject of the test is clathrin-dependent pathway or macro-pinocytosis pathway. The test can be described thus: Effect of endocytosis pathway inhibitors on BTNP accumulation in cytoplasm in response to TTFields. It is filed as cell-based. The conditions noted are these: specific inhibitors of clathrin-dependent or macro-pinocytosis pathway. An excerpt: Nanoparticles (NPs) internalization into cells is known to be dependent on particle size and its zeta potential. NPs under 200 nm can be engulfed by cancer cells through clathrin-dependent pathway or macro-pinocytosis pathway. […] The data herein evidences that increased membrane permeability by TTFields can induce BTNP accumulation in cytoplasm of cancer cells.
Take `N=C(N)NC(=O)c1nc(Cl)c(N)nc1N` [amiloride]: the “accumulation of BTNPs in cytoplasm in response to TTFields” value is “did not modulate”. The entry for `CN(C)CCCN1c2ccccc2Sc2ccc(Cl)cc21` [chlorpromazine] is “did not modulate”. The entry for `C=C1[C@@H](C)[C@H]2[C@H](Cc3ccccc3)NC(=O)[C@]23[C@H](OC(C)=O)/C=C/[C@@](C)(O)C(=O)[C@@H](C)C/C=C/[C@H]3[C@@H]1O` [cytochalasin D] is “did not modulate”.

For the origin of these results see patent publication US12397167B2, “Compositions and methods of altering the electric impedance to an alternating electric field” (NOVOCURE GMBH, priority 2019, dated 2025).
